In US6867200B1, “(Hetero)aryl-bicyclic heteroaryl derivatives, their preparation and their use as protease inhibitors” (Axys Pharmaceuticals, Inc., priority 1998, dated 2005):
pKi: −log10 of the molar value.

Columns and labels:
[1] = biological target: T1, human Factor Xa (Homo sapiens, UniProt P00742); assay: Factor Xa inhibition, chromogenic substrate hydrolysis, Ki app.; type: biochemical; conditions: read-out: FXa Ki
T1 construct: purified human Factor Xa; purchased Haematologic Technologies, VT, USA
T1 sequence (P00742 235-488 limits assumed): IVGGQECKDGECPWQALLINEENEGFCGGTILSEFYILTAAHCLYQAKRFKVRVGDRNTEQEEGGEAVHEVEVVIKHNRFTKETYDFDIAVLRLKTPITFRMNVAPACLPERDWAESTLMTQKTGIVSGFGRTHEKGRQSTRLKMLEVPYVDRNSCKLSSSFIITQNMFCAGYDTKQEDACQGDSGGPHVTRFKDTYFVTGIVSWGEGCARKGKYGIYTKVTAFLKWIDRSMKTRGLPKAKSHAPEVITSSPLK
T1 sequence (P00742 41-179 partner limits assumed): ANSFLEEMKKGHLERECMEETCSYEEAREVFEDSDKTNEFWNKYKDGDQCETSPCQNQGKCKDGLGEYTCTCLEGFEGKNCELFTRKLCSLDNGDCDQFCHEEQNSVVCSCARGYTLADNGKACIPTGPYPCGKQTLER
Procedure: (§1) The effectiveness of compounds of the present invention as inhibitors of Urokinase and Factor Xa is determined using synthetic substrates and purified Urokinase and purified human Factor Xa respectively.
(§2) The rates of hydrolysis by the chromagenic substrates were measured both in the absence and presence of compounds of the present invention. […] The results of this assay are expressed as the inhibitory constant, Ki app.
Factor Xa determinations were made in 50 mM Tris buffer, pH 7.5, containing 1M NaCl, 5 mM CaCl2, 0.05% Tween-20, and 1.5 mM EDTA. […] The enzyme assay routinely yielded linear progression curves under these conditions. Initial velocity measurements calculated from the progress curves by a kinetic analysis program (Batch Ki; Peter Kuzmic, BioKin, Ltd., Madison, Wis.) were used to determine Ki app.

[2] = biological target: T2, human Urokinase (Homo sapiens, UniProt P00749); assay: Urokinase (uPA) inhibition, chromogenic substrate hydrolysis, Ki app.; type: biochemical
T2 construct: purchased American Diagnostica, CT, USA
Procedure: as §1, §2
Urokinase inhibition determinations were made in 50 mM Tris (pH7.5), 150 mM NaCl, 0.05% Tween-20, 0.002% antifoam, and 1 mM EDTA. human Urokinase (from American Diagnostica, CT, USA). […] The enzyme assay routinely yielded linear progression curves under these conditions. Initial velocity measurements calculated from the progress curves by a kinetic analysis program (Batch Ki; Peter Kuzmic, BioKin, Ltd., Madison, Wis.) were used to determine Ki app.

| SMILES | pKi [1] | pKi [2] |
| --- | --- | --- |
| N=C(N)c1cc2cc(-c3cc(CC(=O)N4CCS(=O)(=O)CC4)cc(-c4ccccc4)c3O)[nH]c2cc1Cl [compound 860] | 5.27 | 8.40 |
| N=C(N)c1ccc2nc(-c3ccc(OCC(=O)NCc4cccc5ccccc45)cc3O)[nH]c2c1 [compound 258, 2-[4-(6-Carbamimidoyl-1H-benzoimidazol-2-yl)-3-hydroxy-phenoxy]-N-naphthalen-1-ylmethyl-acetamide] | 6.34 |  |
| Cc1cc(-c2ccccc2)c(O)c(-c2cc3cc(C(=N)N)ccc3[nH]2)c1 [compound 820] | 6.53 | 7.19 |
| N=C(N)c1ccc2[nH]c(-c3cc(CCC(=O)O)cc(Br)c3O)c(Cc3ccccc3)c2c1 [Ex. 802, 3-[3-(3-Benzyl-5-carbamimidoyl-1H-indol-2-yl)-5-bromo-4-hydroxy-phenyl]-propionic acid] | 9.21 | 6.59 |
